# Laboratory results: PubChem BioAssay (NCI)
#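 Five compound concentrations were applied to cells in 96-well plates for 48 hours; endpoints were derived by simple linear interpolation of the resulting dose-response curve. GI50 marks 50% less growth. TGI: total growth inhibition.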
# What was measured:
# Assay in all cases: NCI anticancer screen, dose series, 48 h
# HCT-116 colon = tested on: HCT-116 colon
# MDA-MB-435 = tested on: MDA-MB-435
# 786-0 renal = tested on: 786-0 renal
# NCI-H226 lung = tested on: NCI-H226 lung
# BT-549 breast = tested on: BT-549 breast
# SNB-19 CNS = tested on: SNB-19 CNS
# HL-60(TB) leukemia = tested on: HL-60(TB) leukemia
# SN12C renal = tested on: SN12C renal
# DU-145 prostate = tested on: DU-145 prostate
# CAKI-1 renal = tested on: CAKI-1 renal
# SK-MEL-5 melanoma = tested on: SK-MEL-5 melanoma
# NCI/ADR-RES ovarian = tested on: NCI/ADR-RES ovarian
# MDA-MB-231 breast = tested on: MDA-MB-231 breast
# OVCAR-8 ovarian = tested on: OVCAR-8 ovarian
# OVCAR-4 ovarian = tested on: OVCAR-4 ovarian
# CCRF-CEM leukemia = tested on: CCRF-CEM leukemia
# U251 CNS = tested on: U251 CNS
# A549 NSCLC = tested on: A549 NSCLC
# EKVX NSCLC = tested on: EKVX NSCLC
# UACC-62 melanoma = tested on: UACC-62 melanoma
# MCF7 breast = tested on: MCF7 breast
# KM12 colon = tested on: KM12 colon
# RPMI-8226 leukemia = tested on: RPMI-8226 leukemia
# COLO 205 colon = tested on: COLO 205 colon
# HS 578T breast = tested on: HS 578T breast
# IGROV1 ovarian = tested on: IGROV1 ovarian
# OVCAR-3 ovarian = tested on: OVCAR-3 ovarian
# SK-MEL-28 melanoma = tested on: SK-MEL-28 melanoma
# T-47D breast = tested on: T-47D breast
# M14 melanoma = tested on: M14 melanoma
# MOLT-4 leukemia = tested on: MOLT-4 leukemia
# NCI-H522 lung = tested on: NCI-H522 lung
# OVCAR-5 ovarian = tested on: OVCAR-5 ovarian
# SF-295 CNS = tested on: SF-295 CNS
# ACHN renal = tested on: ACHN renal
# SF-539 CNS = tested on: SF-539 CNS
# SK-OV-3 ovarian = tested on: SK-OV-3 ovarian
# SK-MEL-2 melanoma = tested on: SK-MEL-2 melanoma
# A498 renal = tested on: A498 renal
# K-562 leukemia = tested on: K-562 leukemia
# HOP-62 NSCLC = tested on: HOP-62 NSCLC
# NCI-H460 lung = tested on: NCI-H460 lung
# RXF 393 renal = tested on: RXF 393 renal
# SF-268 CNS = tested on: SF-268 CNS
# UO-31 renal = tested on: UO-31 renal
# HOP-92 NSCLC = tested on: HOP-92 NSCLC
# HCC-2998 colon = tested on: HCC-2998 colon
# UACC-257 melanoma = tested on: UACC-257 melanoma
# NCI-H23 lung = tested on: NCI-H23 lung
# TK-10 renal = tested on: TK-10 renal
# MALME-3M melanoma = tested on: MALME-3M melanoma
# SW-620 colon = tested on: SW-620 colon
# SR leukemia = tested on: SR leukemia
# LOX IMVI melanoma = tested on: LOX IMVI melanoma
# PC-3 prostate = tested on: PC-3 prostate
# HCT-15 colon = tested on: HCT-15 colon
compound,measurement,setting,value
c1cc2ccc3cc2cc1CNCCN1CCNCc2ccc4ccc(cc4c2)CNCCN(CCNC3)CCNCc2ccc3ccc(cc3c2)CNCC1,GI50,HCT-116 colon,2570 nM
same,TGI,HCT-116 colon,8.82 µM
same,GI50,MDA-MB-435,2410 nM
same,TGI,MDA-MB-435,6.25 µM
same,GI50,786-0 renal,10.4 µM
same,TGI,786-0 renal,35.4 µM
same,GI50,NCI-H226 lung,2270 nM
same,TGI,NCI-H226 lung,6.11 µM
same,GI50,BT-549 breast,2510 nM
same,TGI,BT-549 breast,7.77 µM
same,GI50,SNB-19 CNS,2660 nM
same,TGI,SNB-19 CNS,8.38 µM
same,GI50,HL-60(TB) leukemia,2320 nM
same,TGI,HL-60(TB) leukemia,5.53 µM
same,GI50,SN12C renal,1710 nM
same,TGI,SN12C renal,8.57 µM
same,GI50,DU-145 prostate,2100 nM
same,TGI,DU-145 prostate,5.83 µM
same,GI50,CAKI-1 renal,41 µM
same,TGI,CAKI-1 renal,> 100 µM
same,GI50,SK-MEL-5 melanoma,56 µM
same,TGI,SK-MEL-5 melanoma,> 100 µM
same,GI50,NCI/ADR-RES ovarian,> 100 µM
same,TGI,NCI/ADR-RES ovarian,> 100 µM
same,GI50,MDA-MB-231 breast,1910 nM
same,TGI,MDA-MB-231 breast,6.99 µM
same,GI50,OVCAR-8 ovarian,3.61 µM
same,TGI,OVCAR-8 ovarian,> 100 µM
same,GI50,OVCAR-4 ovarian,2890 nM
same,TGI,OVCAR-4 ovarian,7.22 µM
same,GI50,CCRF-CEM leukemia,2340 nM
same,TGI,CCRF-CEM leukemia,> 100 µM
same,GI50,U251 CNS,1480 nM
same,TGI,U251 CNS,10.4 µM
same,GI50,A549 NSCLC,2620 nM
same,TGI,A549 NSCLC,> 100 µM
same,GI50,EKVX NSCLC,4.84 µM
same,TGI,EKVX NSCLC,> 100 µM
same,GI50,UACC-62 melanoma,2370 nM
same,TGI,UACC-62 melanoma,6.95 µM
same,GI50,MCF7 breast,392 nM
same,TGI,MCF7 breast,5.15 µM
same,GI50,KM12 colon,2540 nM
same,TGI,KM12 colon,6.47 µM
same,GI50,RPMI-8226 leukemia,1620 nM
same,TGI,RPMI-8226 leukemia,6.03 µM
same,GI50,COLO 205 colon,2120 nM
same,TGI,COLO 205 colon,6.86 µM
same,GI50,HS 578T breast,3000 nM
same,TGI,HS 578T breast,17.4 µM
same,GI50,IGROV1 ovarian,2890 nM
same,TGI,IGROV1 ovarian,13.1 µM
same,GI50,OVCAR-3 ovarian,2660 nM
same,TGI,OVCAR-3 ovarian,8.04 µM
same,GI50,SK-MEL-28 melanoma,2420 nM
same,TGI,SK-MEL-28 melanoma,6.32 µM
same,GI50,T-47D breast,2050 nM
same,TGI,T-47D breast,7.54 µM
same,GI50,M14 melanoma,3.27 µM
same,TGI,M14 melanoma,13.1 µM
same,GI50,MOLT-4 leukemia,2820 nM
same,TGI,MOLT-4 leukemia,9.35 µM
same,GI50,NCI-H522 lung,431 nM
same,TGI,NCI-H522 lung,5.56 µM
same,GI50,OVCAR-5 ovarian,2380 nM
same,TGI,OVCAR-5 ovarian,7.96 µM
same,GI50,SF-295 CNS,11.9 µM
same,TGI,SF-295 CNS,38.9 µM
same,GI50,ACHN renal,39.4 µM
same,TGI,ACHN renal,> 100 µM
same,GI50,SF-539 CNS,1890 nM
same,TGI,SF-539 CNS,4.87 µM
same,GI50,SK-OV-3 ovarian,2800 nM
same,TGI,SK-OV-3 ovarian,8.3 µM
same,GI50,SK-MEL-2 melanoma,2360 nM
same,TGI,SK-MEL-2 melanoma,5.89 µM
same,GI50,A498 renal,10.9 µM
same,TGI,A498 renal,30.4 µM
same,GI50,K-562 leukemia,1910 nM
same,TGI,K-562 leukemia,> 100 µM
same,GI50,HOP-62 NSCLC,2990 nM
same,TGI,HOP-62 NSCLC,13.2 µM
same,GI50,NCI-H460 lung,2950 nM
same,TGI,NCI-H460 lung,10.8 µM
same,GI50,RXF 393 renal,17.3 µM
same,TGI,RXF 393 renal,39.4 µM
same,GI50,SF-268 CNS,2250 nM
same,TGI,SF-268 CNS,6.44 µM
same,GI50,UO-31 renal,> 100 µM
same,TGI,UO-31 renal,> 100 µM
same,GI50,HOP-92 NSCLC,1310 nM
same,TGI,HOP-92 NSCLC,5.41 µM
same,GI50,HCC-2998 colon,2270 nM
same,TGI,HCC-2998 colon,6.4 µM
same,GI50,UACC-257 melanoma,3.93 µM
same,TGI,UACC-257 melanoma,> 100 µM
same,GI50,NCI-H23 lung,1980 nM
same,TGI,NCI-H23 lung,5.99 µM
same,GI50,TK-10 renal,18.6 µM
same,TGI,TK-10 renal,64.8 µM
same,GI50,MALME-3M melanoma,2110 nM
same,TGI,MALME-3M melanoma,5.58 µM
same,GI50,SW-620 colon,3.36 µM
same,TGI,SW-620 colon,> 100 µM
same,GI50,SR leukemia,2130 nM
same,TGI,SR leukemia,7.87 µM
same,GI50,LOX IMVI melanoma,2030 nM
same,TGI,LOX IMVI melanoma,4.42 µM
same,GI50,PC-3 prostate,2220 nM
same,TGI,PC-3 prostate,6.99 µM
same,GI50,HCT-15 colon,80.1 µM
same,TGI,HCT-15 colon,> 100 µM
